{"source": "patent US8318938B2", "about": "“Trans-fused chromenoisoquinolines synthesis and methods for use” (Purdue Research Foundation, priority 2006, dated 2012)", "key": {"[1]": {"target": "T1, α2C adrenergic receptor (Homo sapiens, UniProt P18825)", "T1 construct": "expressed in transfected cells; host or cells: HEK293 (HEK-α2C)", "T1 sequence (P18825 1-462)": "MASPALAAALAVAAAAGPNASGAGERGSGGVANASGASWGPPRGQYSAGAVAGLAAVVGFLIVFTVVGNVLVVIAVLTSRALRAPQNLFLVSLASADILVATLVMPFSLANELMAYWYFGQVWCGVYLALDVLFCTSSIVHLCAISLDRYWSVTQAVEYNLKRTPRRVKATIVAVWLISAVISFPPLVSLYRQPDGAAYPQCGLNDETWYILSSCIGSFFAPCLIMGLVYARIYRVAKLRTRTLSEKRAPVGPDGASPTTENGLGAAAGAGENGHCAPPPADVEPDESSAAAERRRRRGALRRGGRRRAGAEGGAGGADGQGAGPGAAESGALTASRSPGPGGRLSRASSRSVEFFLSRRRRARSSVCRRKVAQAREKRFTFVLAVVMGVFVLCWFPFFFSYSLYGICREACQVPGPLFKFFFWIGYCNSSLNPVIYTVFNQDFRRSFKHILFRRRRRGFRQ", "assay": "NIMH-sponsored Psychoactive Drug Screening Program affinity screen", "type": "binding", "settings": "NIMH PDSP screen"}, "[2]": {"target": "endogenous human D1-like dopamine receptor in MCF7 cells (Homo sapiens, UniProt P21728)", "sequence (P21728 whole entry)": "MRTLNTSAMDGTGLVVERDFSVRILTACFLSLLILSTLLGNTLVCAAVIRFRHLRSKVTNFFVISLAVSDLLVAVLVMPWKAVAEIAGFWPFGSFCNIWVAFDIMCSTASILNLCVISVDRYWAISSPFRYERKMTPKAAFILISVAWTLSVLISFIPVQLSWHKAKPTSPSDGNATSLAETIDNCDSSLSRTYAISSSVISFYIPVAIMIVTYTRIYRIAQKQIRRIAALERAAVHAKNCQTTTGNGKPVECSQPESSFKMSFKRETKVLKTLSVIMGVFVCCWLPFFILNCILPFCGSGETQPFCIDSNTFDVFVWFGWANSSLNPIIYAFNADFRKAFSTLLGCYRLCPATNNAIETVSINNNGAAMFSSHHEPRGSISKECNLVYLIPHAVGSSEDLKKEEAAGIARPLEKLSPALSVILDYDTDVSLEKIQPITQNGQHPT", "settings": "for Intrinsic Activity (% dopamine), Endogenous hD1: normalized to maximal cyclic AMP accumulation with dopamine (FIG. 3A)", "procedure": "The data presented in FIG. 2B are the mean±SEM of three independent experiments assayed in duplicate.\nThe data presented in FIGS. 3B-C are the mean±SEM of three independent experiments assayed in duplicate.\n(§1) Cell Culture. […] Cells were grown at 37° C. in a humidified incubator with 6% CO2.\n(§2) Cyclic AMP accumulation assay. Assays were performed on confluent monolayers of cells in 48-well plates. […] Cyclic AMP stimulation assays were performed on HEK D1-CRELuc or MCF7 cells by incubating the cells with ligands for 15 minutes at 37° C. Cyclic AMP inhibition assays were performed on HEK-α2C cells in the presence 30 μM forskolin to stimulate cyclic AMP formation. All assays were performed in the presence of 500 μM isobutylmethylxanthine (IBMX) and terminated with ice cold 3% trichloroacetic acid.\n(§3) Cyclic AMP binding assay. […] Briefly, cellular lysate (15-20 μL) was added to cyclic AMP binding buffer (100 mM Tris-HCl, pH 7.4, 100 mM NaCl, 5 mM EDTA) in assay tubes containing 1 nM final concentration [^3H]cyclic AMP and bovine adrenal gland cyclic AMP binding protein (100-150 μg in 500 μl binding buffer). The binding assay was incubated on ice at 4° C. for 2-4 hours and terminated by harvesting with ice cold wash buffer (10 mM Tris, 0.9% NaCl) using a 96-well Packard Filtermate cell harvester and Millipore Multiscreen Harvest Plates (Millipore, Billerica, Mass., USA). Packard Microscint O (40 μL) was added to each well after drying. Radioactivity was counted using a Packard Topcount scintillation counter. Standard curves ranging from 0.01 to 300 pmol of cyclic AMP were used to determine the concentration of cyclic AMP in each sample. Data analysis was performed on GraphPad Prism software."}, "[3]": {"target": "T1, α2C adrenergic receptor", "assay": "Inhibition of forskolin-stimulated cyclic AMP accumulation in HEK293 cells stably expressing the α2C receptor", "type": "cell-based", "settings": "for EC50 / Intrinsic Activity (% forskolin), α2C Adrenergic: HEK-α2C cells; for EC50: 30 μM forskolin, 15 min at 37° C.; for Intrinsic Activity (% forskolin), α2C Adrenergic: inhibition of cyclic AMP stimulated by 30 μM forskolin", "description": "The data presented have been normalized to the maximal cyclic AMP accumulation observed in the presence of forskolin alone and are the mean±SEM of three independent experiments assayed in duplicate.\nBriefly, HEK D1-CreLuc cells were created by a two step process. HEK293 cells were co-transfected with the pBabe Puro and pGL-CreLuc vectors. Puromycin resistant clones, which expressed the functional cyclic AMP response element-linked luciferase reporter gene, were selected. Next, HEK-CreLuc cells were stably transfected with pcDNA3.1 (+)-D1. Clones were assayed for D1 receptor function by measuring cyclic AMP accumulation and luciferase activity. HEK-α2C cells were constructed by stable transfection with pcDNA.3(+)-α2C. G418 resistant clones were selected and assayed for α2C function by measuring inhibition of forskolin-stimulated cyclic AMP accumulation.\nas §1, §2, §3"}, "[4]": {"target": "human dopamine D1 receptor (Homo sapiens, UniProt P21728)", "sequence (P21728 whole entry)": "as above", "assay": "Cyclic AMP accumulation in HEK cells stably expressing the human dopamine D1 receptor (cloned hD1)", "type": "cell-based", "settings": "normalized to maximal cyclic AMP accumulation with dopamine", "quoted_text": "Cyclic AMP accumulation assay. Assays were performed on confluent monolayers of cells in 48-well plates. […] Cyclic AMP stimulation assays were performed on HEK D1-CRELuc or MCF7 cells by incubating the cells with ligands for 15 minutes at 37° C. […] All assays were performed in the presence of 500 μM isobutylmethylxanthine (IBMX) and terminated with ice cold 3% trichloroacetic acid."}, "[5]": {"target": "native D1-like dopamine receptors in porcine striatal tissue (Sus scrofa, UniProt P50130)", "sequence (P50130 whole entry)": "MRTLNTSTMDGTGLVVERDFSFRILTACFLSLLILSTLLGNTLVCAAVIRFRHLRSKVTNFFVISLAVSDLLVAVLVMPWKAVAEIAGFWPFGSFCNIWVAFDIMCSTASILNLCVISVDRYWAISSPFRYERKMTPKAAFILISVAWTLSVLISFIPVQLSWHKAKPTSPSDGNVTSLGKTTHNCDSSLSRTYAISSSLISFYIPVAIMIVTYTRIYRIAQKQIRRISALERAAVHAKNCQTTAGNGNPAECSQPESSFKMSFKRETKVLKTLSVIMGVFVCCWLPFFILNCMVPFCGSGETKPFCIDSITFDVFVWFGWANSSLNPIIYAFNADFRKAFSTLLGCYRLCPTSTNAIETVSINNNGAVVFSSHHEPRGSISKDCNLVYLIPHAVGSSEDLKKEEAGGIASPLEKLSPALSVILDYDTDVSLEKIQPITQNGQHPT", "assay": "Porcine striatal cyclase assay (cyclic AMP stimulation in striatal homogenate)", "type": "biochemical", "settings": "read-out: intrinsic activity in porcine striatal tissue", "procedure": "as §3\nThe homogenate was centrifuged at 1,000×g for 10 min at 4° C."}}, "note": "“And” between values parts separate entries of the source, which are not always exact repeats. Equal entries are not always repeated. Structures can show the parent of a compound that is named as a salt.", "data": [{"smiles": "Cl.Oc1cc2c(cc1O)C1c3ccccc3CNC1CO2", "note": "(racemic) [(±)-ODHX, 2,3-Dihydroxy-6a,7,8,12b-tetrahydro-6H-chromeno[3,4-c]isoquinoline hydrochloride]", "values": [{"measurement": "Ki", "setting": "[1]", "result": "~2", "unit": "nM"}, {"measurement": "Intrinsic Activity (% dopamine), Endogenous hD1", "setting": "[2]", "result": "80 ± 3", "unit": "% dopamine"}]}, {"smiles": "C1=NC2COc3cc4c(cc3C2c2ccccc21)OCO4", "note": "(stereo not drawn) [Example 5, 2,3-Methylenedioxy-6a,12b-dihydro-6H-chromeno[3,4-c]isoquinoline]", "values": [{"measurement": "melting point", "result": 191, "unit": "°C"}]}, {"smiles": "Cl.Oc1cc2c(cc1O)[C@@H]1c3ccccc3CN[C@H]1CO2", "note": "[(−)-ODHX, (−)-(6aR,12bS)-2,3-Dihydroxy-6a,7,8,12b-tetrahydro-6H-chromeno[3,4-c]isoquinoline hydrochloride]", "values": [{"measurement": "EC50", "setting": "[3]", "result": 4.4, "unit": "nM"}, {"measurement": "Intrinsic Activity (% forskolin), α2C Adrenergic", "setting": "[3]", "result": "69 ± 2", "unit": "% forskolin"}, {"measurement": "effect alone on cyclic AMP levels", "setting": "[2]; 10 μM alone", "result": "significant increase in cyclic AMP levels"}, {"measurement": "antagonism of dopamine- and (+)-ODHX-stimulated cyclic AMP accumulation", "setting": "[2]; dose-response curves in presence of 10 μM (−)-ODHX (FIGS. 3B-C)", "result": "reduced the intrinsic activity and potency of both dopamine and (+)-ODHX"}, {"measurement": "Intrinsic Activity (% dopamine), Cloned hD1", "setting": "[4]", "result": "85 ± 6", "unit": "% dopamine"}]}, {"smiles": "Cl.c1ccc2c(c1)CN[C@H]1COc3cc4c(cc3[C@H]21)OCO4", "values": [{"measurement": "melting point", "result": 163, "unit": "°C"}]}, {"smiles": "Oc1cc2c(cc1O)[C@H]1c3ccccc3CN[C@@H]1CO2", "note": "[(+)-ODHX, (+)-(6aS,12bR)-2,3-Dihydroxy-6a,7,8,12b-tetrahydro-6H-chromeno[3,4-c]isoquinoline hydrochloride]", "values": [{"measurement": "Emax", "setting": "[5]", "result": "115 ± 15", "unit": "%"}, {"measurement": "intrinsic activity as share of the intrinsic activity of (−)-ODHX at α2C receptor", "setting": "[3]", "result": "ca. 50%"}, {"measurement": "EC50", "setting": "[3]", "result": "151 ± 25", "unit": "nM"}, {"measurement": "Intrinsic Activity (% forskolin), α2C Adrenergic", "setting": "[3]; hydrochloride", "result": "34±6 % forskolin and 34 ± 7 % forskolin"}, {"measurement": "Intrinsic Activity (% dopamine), Endogenous hD1", "setting": "[2]", "result": "131 ± 13", "unit": "% dopamine"}, {"measurement": "Intrinsic Activity (% dopamine), Cloned hD1", "setting": "[4]; hydrochloride", "result": "109±6", "unit": "% dopamine"}]}, {"smiles": "c1ccc2c(c1)CNC1COc3cc4c(cc3C21)OCO4", "note": "(stereo not drawn) [Example 6, 2,3-Methylenedioxy-6a,7,8,12b-tetrahydro-6H-chromeno[3,4-c]isoquinoline]", "values": [{"measurement": "melting point", "result": 188, "unit": "°C"}]}, {"smiles": "Cl.c1ccc2c(c1)CN[C@@H]1COc3cc4c(cc3[C@@H]21)OCO4", "values": [{"measurement": "melting point", "result": 163, "unit": "°C"}]}, {"smiles": "Br.Cc1ccc2c(c1)C1c3cc(O)c(O)cc3OCC1NC2", "note": "(stereo not drawn)", "values": [{"measurement": "melting point", "result": "195 to 200 °C (dec.)"}]}, {"smiles": "Clc1cccc(Cl)c1N=C1NCCN1", "note": "[Clonidine, reference compound]", "values": [{"measurement": "Intrinsic Activity (% forskolin), α2C Adrenergic", "setting": "[3]", "result": "61 ± 5", "unit": "% forskolin"}]}, {"smiles": "O=C1N[C@@H]2COc3cc4c(cc3[C@H]2c2ccsc21)OCO4", "note": "(racemic) [Example 23, (±)-Trans-9,10-methylenedioxy-5,5a,6,11b-tetrahydro-4H-chromeno[3,4-b]thieno[3,2-d]pyridin-4-one]", "values": [{"measurement": "melting point", "result": "> 250", "unit": "°C"}]}, {"smiles": "Cc1ccc2c(c1)C1c3cc4c(cc3OCC1NC2=O)OCO4", "note": "(stereo not drawn) [Example 16, 2,3-methylenedioxy-11-methyl-6a,7-dihydro-6H-12bH-chromeno[3,4-c]isoquinolin-8-one]", "values": [{"measurement": "melting point", "result": "> 250", "unit": "°C"}]}]}
